Data: ChEMBL document CHEMBL4261633, “Butenolides from a marine-derived fungus Aspergillus terreus with antitumor activities against pancreatic ductal adenocarcinoma cells” (Bioorg Med Chem, 2018)
Each block holds one compound with its values, some of them ahead of it. Calls of active or inactive are those of the source. No cut-off for these calls is given here.

Key:
PANC-1 [1] = test: Antiproliferative activity against human PANC1 cells after 24 hrs by CCK8 assay; type: functional, cell-based; conditions: PANC-1, 24 h
HT-29 = test: Antiproliferative activity against human HT-29 cells after 24 hrs by CCK8 assay; type: functional, cell-based; conditions: HT-29, 24 h
HepG2 = test: Antiproliferative activity against human HepG2 cells after 24 hrs by CCK8 assay; type: functional, cell-based; conditions: HepG2, 24 h
BEAS-2B = test: Antiproliferative activity against human BEAS2B cells after 24 hrs by CCK8 assay; type: functional, cell-based
HCC1806 = test: Antiproliferative activity against human HCC1806 cells after 24 hrs by CCK8 assay; type: functional, cell-based; conditions: HCC1806, 24 h
PANC-1 [2] = test: Induction of apoptosis in human PANC1 cells assessed as nuclear fragmentation at 25 uM after 24 hrs by Hoechst 33258 staining based fluorescence microscopic analysis; type: functional, cell-based
PANC-1 [3] = test: Cell cycle arrest in human PANC1 cells assessed as accumulation at G2/M phase at 15 uM after 24 hrs by RNAase/propidium iodide staining-based flow cytometric analysis (reference value: 6.83 to 11.82%); type: functional
PANC-1 [4] = test: Cell cycle arrest in human PANC1 cells assessed as accumulation at G2/M phase at 5 uM after 24 hrs by RNAase/propidium iodide staining-based flow cytometric analysis (reference value: 6.83 to 11.82%); type: functional
PANC-1 [5] = test: Cell cycle arrest in human PANC1 cells assessed as accumulation at G1 phase at 15 uM after 24 hrs by RNAase/propidium iodide staining-based flow cytometric analysis (reference value: 67.93 to 75.87%); type: functional
PANC-1 [6] = test: Cell cycle arrest in human PANC1 cells assessed as accumulation at S phase at 15 uM after 24 hrs by RNAase/propidium iodide staining-based flow cytometric analysis (reference value: 11.66 to 19.02%); type: functional
PANC-1 [7] = test: Induction of apoptosis in human PANC1 cells assessed as nuclear shrinkage at 25 uM after 24 hrs by Hoechst 33258 staining based fluorescence microscopic analysis; type: functional, cell-based
PANC-1 [8] = test: Cell cycle arrest in human PANC1 cells assessed as accumulation at S phase at 25 uM after 24 hrs by RNAase/propidium iodide staining-based flow cytometric analysis (reference value: 11.66 to 19.02%); type: functional
PANC-1 [9] = test: Induction of apoptosis in human PANC1 cells after 24 hrs by FITC-Annexin V/propidium iodide staining-based flow cytometric analysis; type: functional, cell-based
PANC-1 [10] = test: Induction of apoptosis in human PANC1 cells assessed as necrotic cells at 5 uM after 24 hrs by FITC-Annexin V/propidium iodide staining-based flow cytometric analysis (reference value: 0.7 to 1.4%); type: functional
PANC-1 [11] = test: Induction of apoptosis in human PANC1 cells assessed as early apoptotic cells at 15 uM after 24 hrs by FITC-Annexin V/propidium iodide staining-based flow cytometric analysis (reference value: 0.5 to 3.2%); type: functional
PANC-1 [12] = test: Induction of apoptosis in human PANC1 cells assessed as viable cells at 10 uM after 24 hrs by FITC-Annexin V/propidium iodide staining-based flow cytometric analysis (reference value: 94.7 to 98.7%); type: functional; conditions: PANC-1, 24 h, read-out: Activity
PANC-1 [13] = test: Induction of apoptosis in human PANC1 cells assessed as viable cells at 15 uM after 24 hrs by FITC-Annexin V/propidium iodide staining-based flow cytometric analysis (reference value: 94.7 to 98.7%); type: functional; conditions: PANC-1, 24 h, read-out: Activity
PANC-1 [14] = test: Cell cycle arrest in human PANC1 cells assessed as accumulation at G1 phase at 25 uM after 24 hrs by RNAase/propidium iodide staining-based flow cytometric analysis (reference value: 67.93 to 75.87%); type: functional
PANC-1 [15] = test: Induction of apoptosis in human PANC1 cells assessed as late apoptotic cells at 10 uM after 24 hrs by FITC-Annexin V/propidium iodide staining-based flow cytometric analysis (reference value: 0.0 to 0.7%); type: functional
PANC-1 [16] = test: Cell cycle arrest in human PANC1 cells assessed as accumulation at G2/M phase at 25 uM after 24 hrs by RNAase/propidium iodide staining-based flow cytometric analysis (reference value: 6.83 to 11.82%); type: functional
PANC-1 [17] = test: Induction of apoptosis in human PANC1 cells assessed as late apoptotic cells at 5 uM after 24 hrs by FITC-Annexin V/propidium iodide staining-based flow cytometric analysis (reference value: 0.0 to 0.7%); type: functional
PANC-1 [18] = test: Induction of apoptosis in human PANC1 cells assessed as necrotic cells at 25 uM after 24 hrs by FITC-Annexin V/propidium iodide staining-based flow cytometric analysis (reference value: 0.7 to 1.4%); type: functional
PANC-1 [19] = test: Induction of apoptosis in human PANC1 cells assessed as necrotic cells at 15 uM after 24 hrs by FITC-Annexin V/propidium iodide staining-based flow cytometric analysis (reference value: 0.7 to 1.4%); type: functional
PANC-1 [20] = test: Induction of apoptosis in human PANC1 cells assessed as early apoptotic cells at 25 uM after 24 hrs by FITC-Annexin V/propidium iodide staining-based flow cytometric analysis (reference value: 0.5 to 3.2%); type: functional
PANC-1 [21] = test: Cell cycle arrest in human PANC1 cells assessed as accumulation at S phase at 5 uM after 24 hrs by RNAase/propidium iodide staining-based flow cytometric analysis (reference value: 11.66 to 19.02%); type: functional
PANC-1 [22] = test: Induction of apoptosis in human PANC1 cells assessed as nuclear chromatin condensation at 25 uM after 24 hrs by Hoechst 33258 staining based fluorescence microscopic analysis; type: functional, cell-based
PANC-1 [23] = test: Induction of apoptosis in human PANC1 cells assessed as early apoptotic cells at 5 uM after 24 hrs by FITC-Annexin V/propidium iodide staining-based flow cytometric analysis (reference value: 0.5 to 3.2%); type: functional
PANC-1 [24] = test: Induction of apoptosis in human PANC1 cells assessed as viable cells at 5 uM after 24 hrs by FITC-Annexin V/propidium iodide staining-based flow cytometric analysis (reference value: 94.7 to 98.7%); type: functional; conditions: PANC-1, 24 h, read-out: Activity
PANC-1 [25] = test: Cell cycle arrest in human PANC1 cells assessed as accumulation at G1 phase at 5 uM after 24 hrs by RNAase/propidium iodide staining-based flow cytometric analysis (reference value: 67.93 to 75.87%); type: functional
PANC-1 [26] = test: Cell cycle arrest in human PANC1 cells assessed as accumulation at G1 phase at 10 uM after 24 hrs by RNAase/propidium iodide staining-based flow cytometric analysis (reference value: 67.93 to 75.87%); type: functional
PANC-1 [27] = test: Induction of apoptosis in human PANC1 cells assessed as late apoptotic cells at 25 uM after 24 hrs by FITC-Annexin V/propidium iodide staining-based flow cytometric analysis (reference value: 0.0 to 0.7%); type: functional
PANC-1 [28] = test: Cell cycle arrest in human PANC1 cells assessed as accumulation at S phase at 10 uM after 24 hrs by RNAase/propidium iodide staining-based flow cytometric analysis (reference value: 11.66 to 19.02%); type: functional
PANC-1 [29] = test: Induction of apoptosis in human PANC1 cells assessed as nuclear chromatin condensation at 5 uM after 24 hrs by Hoechst 33258 staining based fluorescence microscopic analysis; type: functional, cell-based
PANC-1 [30] = test: Induction of apoptosis in human PANC1 cells assessed as nuclear shrinkage at 5 uM after 24 hrs by Hoechst 33258 staining based fluorescence microscopic analysis; type: functional, cell-based
PANC-1 [31] = test: Induction of apoptosis in human PANC1 cells assessed as viable cells at 25 uM after 24 hrs by FITC-Annexin V/propidium iodide staining-based flow cytometric analysis (reference value: 94.7 to 98.7%); type: functional; conditions: PANC-1, 24 h, read-out: Activity
PANC-1 [32] = test: Induction of apoptosis in human PANC1 cells assessed as late apoptotic cells at 15 uM after 24 hrs by FITC-Annexin V/propidium iodide staining-based flow cytometric analysis (reference value: 0.0 to 0.7%); type: functional
PANC-1 [33] = test: Induction of apoptosis in human PANC1 cells assessed as early apoptotic cells at 10 uM after 24 hrs by FITC-Annexin V/propidium iodide staining-based flow cytometric analysis (reference value: 0.5 to 3.2%); type: functional
PANC-1 [34] = test: Cell cycle arrest in human PANC1 cells assessed as accumulation at G2/M phase at 10 uM after 24 hrs by RNAase/propidium iodide staining-based flow cytometric analysis (reference value: 6.83 to 11.82%); type: functional
PANC-1 [35] = test: Induction of apoptosis in human PANC1 cells assessed as nuclear fragmentation at 5 uM after 24 hrs by Hoechst 33258 staining based fluorescence microscopic analysis; type: functional, cell-based
PANC-1 [36] = test: Induction of apoptosis in human PANC1 cells assessed as necrotic cells at 10 uM after 24 hrs by FITC-Annexin V/propidium iodide staining-based flow cytometric analysis (reference value: 0.7 to 1.4%); type: functional

Compound: COC(=O)[C@]1(Cc2ccc(O)c(C[C@@H](O)C(C)C)c2)OC(=O)C(O)=C1c1ccc(O)cc1
IC50 (PANC-1 [1]): > 20 µM | IC50 (HT-29): > 20 µM | IC50 (HepG2): > 20 µM | IC50 (BEAS-2B): > 20 µM | IC50 (HCC1806): > 20 µM

Compound: COC(=O)[C@]1(Cc2ccc3c(c2)C[C@H](O)C(C)(C)O3)OC(=O)C(O)=C1c1ccc(O)cc1 [BUTYROLACTONE V]
IC50 (PANC-1 [1]): > 20 µM | IC50 (HT-29): > 20 µM | IC50 (HepG2): > 20 µM | IC50 (BEAS-2B): > 20 µM | IC50 (HCC1806): > 20 µM

Compound: COC(=O)[C@]1(Cc2ccc3c(c2)C=CC(C)(C)O3)OC(=O)C(O)=C1c1ccc(O)cc1
IC50 (PANC-1 [1]): > 20 µM | IC50 (HT-29): > 20 µM | IC50 (HepG2): > 20 µM | IC50 (BEAS-2B): > 20 µM | IC50 (HCC1806): > 20 µM

Compound: COC(=O)[C@]1(Cc2ccc(O)c(CC=C(C)C)c2)OC(=O)C(O)=C1c1ccc(O)c(CC=C(C)C)c1
Activity (PANC-1 [2]): Active | Activity (PANC-1 [3]): 38.12% | Activity (PANC-1 [4]): 14.43% | Activity (PANC-1 [5]): 20.44% | Activity (PANC-1 [6]): 38.47% | Activity (PANC-1 [7]): Active | Activity (PANC-1 [8]): 41.26% | Activity (PANC-1 [9]): Dose-dependent effect | IC50 (PANC-1 [1]): 5.3 µM | Activity (PANC-1 [10]): 0.2% | Activity (PANC-1 [11]): 48.5% | viability at 10 µM (PANC-1 [12]): 87.9% | viability at 15 µM (PANC-1 [13]): 49.1% | Activity (PANC-1 [14]): 20.46% | Activity (PANC-1 [15]): 1.2% | Activity (PANC-1 [16]): 35.78% | Activity (PANC-1 [17]): 0.3% | Activity (PANC-1 [18]): 1.3% | IC50 (HT-29): > 20 µM | Activity (PANC-1 [19]): 1.6% | IC50 (HepG2): 9 µM | Activity (PANC-1 [20]): 42.7% | Activity (PANC-1 [21]): 35.11% | Activity (PANC-1 [22]): Active | Activity (PANC-1 [23]): 4.8% | IC50 (BEAS-2B): > 20 µM | viability at 5 µM (PANC-1 [24]): 94.7% | Activity (PANC-1 [25]): 49.89% | Activity (PANC-1 [26]): 45.36% | Activity (PANC-1 [27]): 11.6% | Activity (PANC-1 [28]): 38.96% | Activity (PANC-1 [29]): Active | Activity (PANC-1 [30]): Active | viability at 25 µM (PANC-1 [31]): 44.5% | Activity (PANC-1 [32]): 0.7% | Activity (PANC-1 [33]): 9.3% | Activity (PANC-1 [34]): 10.09% | IC50 (HCC1806): 17.6 µM | Activity (PANC-1 [35]): Active | Activity (PANC-1 [36]): 1.6%

Second part, led by results:

IC50 (PANC-1 [1]): > 20 µM | IC50 (HT-29): > 20 µM | IC50 (HepG2): > 20 µM | IC50 (HCC1806): > 20 µM
Compound: COC(=O)[C@]1(Cc2ccc3c(c2)CC(C(C)(C)O)O3)OC(=O)C(O)=C1c1ccccc1 (stereo not given in full)
IC50 (BEAS-2B): > 20 µM

IC50 (PANC-1 [1]): > 20 µM | IC50 (HT-29): > 20 µM | IC50 (HepG2): > 20 µM | IC50 (HCC1806): > 20 µM
Compound: CC(C)(O)C1Cc2cc(C[C@H]3OC(=O)C(O)=C3c3ccc(O)cc3)ccc2O1 (stereo not given in full)
IC50 (BEAS-2B): > 20 µM
